These results are taken from ChEMBL document CHEMBL5352385, “Marine natural products and their synthetic analogs as promising antibiofilm agents for antibiotics discovery and development” (Eur J Med Chem, 2022).

Assay [1] relates to Pseudomonas aeruginosa. In words: Antibiofilm activity against Pseudomonas aeruginosa assessed as inhibition of biofilm formation at 90 ug/ml incubated for 24 hrs by crystal violet staining based analysis relative to control. It counts as functional. Details: scale not given: the % may be the effect or the level left. As to conditions: dose 90 µg/ml.
The subject of assay [2] is Candida albicans. Briefly: Antibiofilm activity against Candida albicans assessed as inhibition of biofilm formation at 400 ug/ml by microbroth dilution assay relative to control. It is filed as functional. Details: scale not given: the % may be the effect or the level left. As to conditions: dose 400 µg/ml. In general terms: In broth dilution the organism is exposed to a series of concentrations in liquid medium.

Assay [3] deals with Acinetobacter baumannii. In words: Antibiofilm activity against Acinetobacter baumannii ATCC […] assessed as reduction in biofilm formation incubated for 24 hrs by crystal violet staining based analysis. It is filed as functional.
Assay [4] deals with Acinetobacter baumannii. Briefly: Antibiofilm activity against Acinetobacter baumannii ATCC 19606 assessed as reduction in biofilm formation incubated for 24 hrs by crystal violet staining based analysis. It is filed as functional.
For assay [5], the system named is Escherichia coli. Briefly: Antibiofilm activity against Escherichia coli at 31.3 ug/ml relative to control. It is filed as functional. As to conditions: dose 31.3 µg/ml.
In assay [6] the test system is Staphylococcus aureus. Briefly: Antibiofilm activity against Staphylococcus aureus ATCC 29213 at 0.5 to 4 ug/ml relative to control. It is filed as functional. As to conditions: dose 0.5-4 µg/ml; at 0.5 to 4 µg/mL.
The subject of assay [7] is Staphylococcus aureus. Briefly: Antibiofilm activity against Staphylococcus aureus ATCC 6538 at 12.5 ug/ml relative to control. It is filed as functional. As to conditions: dose 12.5 µg/ml.
Assay [8] has as its system Bacillus subtilis. Briefly: Antibiofilm activity against Bacillus subtilis ATCC 6633 at 8 to 16 ug/ml incubated for 24 hrs by crystal violet staining based analysis relative to control. It is filed as functional. As to conditions: dose 8-16 µg/ml, at 8 to 16 µg/mL.
Assay [9] relates to Staphylococcus aureus. In words: Antibiofilm activity against Staphylococcus aureus B1 at 8 to 16 ug/ml incubated for 24 hrs by crystal violet staining based analysis relative to control. It counts as functional. To be noted: dose 8-16 µg/ml, at 8 to 16 µg/mL.
Assay [10] concerns Staphylococcus aureus. In words: Antibiofilm activity against Staphylococcus aureus ATCC 25923 at 8 to 16 ug/ml incubated for 24 hrs by crystal violet staining based analysis relative to control. It counts as functional. As to conditions: dose 8-16 µg/ml, at 8 to 16 µg/mL.
Assay [11] deals with Enterococcus faecalis. Briefly: Antibiofilm activity against Enterococcus faecalis W1 at 8 to 16 ug/ml incubated for 24 hrs by crystal violet staining based analysis relative to control. It is filed as functional. As to conditions: dose 8-16 µg/ml, at 8 to 16 µg/mL.
For assay [12], the system named is Pseudomonas aeruginosa. In words: Antibiofilm activity against Pseudomonas aeruginosa PA01 at 128 ug/ml relative to control. It is filed as functional. To be noted: dose 128 µg/ml.
The test system of assay [13] is Staphylococcus epidermidis. In words: Antibiofilm activity against Staphylococcus epidermidis. It is filed as functional.
The nature of assay [14]: Inhibition of quorum-sensing system in Staphylococcus epidermidis assessed as inhibition of AI-2 at 60 ug/ml by bioluminescence assay relative to control. To be noted: dose 60.0 µg/ml.
In assay [15] the test system is Pseudomonas aeruginosa. In words: Antibiofilm activity against Pseudomonas aeruginosa FSPA02 at 75 ug/ml by crystal violet staining based confocal microscopy analysis relative to control. It counts as functional. To be noted: dose 75 µg/ml.
The subject of assay [16] is Staphylococcus aureus. In words: Antibiofilm activity against Staphylococcus aureus by crystal violet staining based analysis. It is filed as functional.
Assay [17] concerns Staphylococcus aureus. Briefly: Antibiofilm activity against Staphylococcus aureus incubated for 3 hrs by XTT method. It counts as functional. (In general: Tetrazolium assays rely on reduction of a dye to a coloured formazan, in cell work by metabolically active cells.)
Assay [18] has as its system Pseudomonas aeruginosa. In words: Antibiofilm activity against Pseudomonas aeruginosa at 100 ug/ml relative to control. It is filed as functional. As to conditions: dose 100 µg/ml.
Assay [19] deals with Staphylococcus aureus. Briefly: Antibiofilm activity against Staphylococcus aureus at 100 ug/ml relative to control. It is filed as functional. To be noted: dose 100 µg/ml.
For assay [20], the system named is Candida albicans. In words: Antibiofilm activity against Candida albicans assessed as reduction in biofilm formation at >200 ug/ml measured after 48 hrs by crystal violet staining based analysis relative to control. Further details: scale not given: the % may be the effect or the level left. As to conditions: dose > 200 µg/ml. It counts as functional.
The subject of assay [21] is Staphylococcus aureus. Briefly: Antibiofilm activity against methicillin-resistant Staphylococcus aureus ATCC 43866 incubated for 24 hrs. It is filed as functional.
The subject of assay [22] is Staphylococcus epidermidis. In words: Antibiofilm activity against […] incubated for 24 hrs. It counts as functional.
The test system of assay [23] is Staphylococcus aureus. Briefly: Antibiofilm activity against methicillin-sensitive Staphylococcus aureus ATCC 35556 incubated for 24 hrs. It counts as functional.
The subject of assay [24] is Escherichia coli. Briefly: Antibiofilm activity against Escherichia coli assessed as inhibition of biofilm formation. It is filed as functional.
Assay [25] has as its system Pseudomonas aeruginosa. In words: Antibiofilm activity against Pseudomonas aeruginosa assessed as inhibition of biofilm formation at 100 to 200 ug/ml relative to control. It is filed as functional. Further details: scale not given: the % may be the effect or the level left. As to conditions: dose 100-200 µg/ml; at 100 to 200 µg/mL.
The subject of assay [26] is Pseudomonas aeruginosa. Briefly: Antibiofilm activity against Pseudomonas aeruginosa PAO1 at 500 ug/ml incubated for 24 hrs by crystal violet staining based analysis relative to control. It counts as functional. To be noted: dose 500 µg/ml.

Where a SMILES comes first, the peptide text is derived from it. The star is where a group is joined. X2 = CCCCCCCCC(O)CC(=O)O* Where only a bound is given, the exact number is not on record here.

Consider `CC(C)CC(=O)NCCc1ccccc1`, for which the Activity in assay [1] is more than 40%.
For the molecule `O=Cc1ccc(CO)o1` [AES-103], in assay [2], the Activity is on record as 86%.
For `COc1cc(-c2ccccn2)nc(/C=N/O)c1S(C)(=O)=O`, the MBIC is 32 µg/mL in assay [3] and 8 µg/mL in assay [4].
In [5], `NC1=N[C@]23CCCN2C(=O)c2cc(Br)c(Br)n2[C@@H]3N1` [DIBROMOPHAKELLIN] came in with an Activity of 50%.
With `COC(=O)CCN(CCCCCCCCCCCOCCc1ccc[n+](Cc2ccccc2)c1)C(=O)OC(C)(C)C.[Cl-]`, the Activity in assay [6] stood at 25%.
`CC1=C2C(=CO[C@H](C)[C@H]2C)C(O)=C(C(=O)O)C1=O` [CITRININ] returned an Activity in [7] of more than 50%.
Consider `C=C1CC[C@H]2[C@@](C)(CC[C@H]3C(C)(C)[C@@H](OC(C)=O)CC[C@]23C)[C@@H]1Cc1c(O)cc(C)oc1=O`, for which the Activity in assay [8], in assay [9], in [10] and in [11] was 100% each time.
For the molecule `O=C1Nc2ccc(Br)cc2C1(c1c[nH]c2ccccc12)c1c[nH]c2ccccc12`, in [12], the Activity is listed as 49.32%. In addition, the MBIC in [13] is 5 µM.
A word on the inhibition: it is the share of the control response that was lost under treatment. As for `CCCCCCCCCCCCCCC=O`, the inhibition in assay [14] is more than 50%.
Consider `CCCCCCCCC(O)CC(=O)OC(=O)C(Cc1ccccc1)NC(=O)C(CC(C)C)NC(=O)C(CC(C)C)NC(=O)C(NC(=O)C(CC(=O)O)NC(=O)C(CC(C)C)NC(=O)C(N)CC(C)C)C(C)C` (stereo unspecified) (H-LLDVLLF-X2; configuration not given here), for which the Activity in assay [15] turned out to be 90%.
Turning to `CCCCOC(=O)[C@]1(Cc2ccccc2)OC(=O)C(O)=C1c1ccccc1`, the MBIC in assay [16] turned out to be 6.1 µg/mL; in [17], 97.7 µg/mL.
Consider `CCCC/C=C\CCCCCCCCCCCC=O`, for which the results for the Activity in [18] and in [19] were 82.657% and 78.973%, respectively.
As for `C/C=C/CCCC(C)/C(O)=C1\C(=O)[C@H](C(C)O)N(C)C1=O` (stereo partly specified), the Activity in assay [20] is listed as 80%.
With `Cn1c(-c2nnc(-c3ccc(Cl)cc3Cl)o2)cc(Br)c1Br`, the values for the MBIC in assay [21], in assay [22] and in assay [23] were 0.78 µg/mL, 3.125 µg/mL and 0.39 µg/mL, respectively.
`CCCCCCCCC1C=CC(=O)O1` (stereo unspecified): in assay [24], the MBIC came out at 50 µg/mL. Moreover, the Activity in [25] worked out at 100%.
In assay [26], `O=C1N[C@@H](Cc2ccc(O)cc2)C(=O)N2CCC[C@@H]12` had an Activity of 48%.
